These results are taken from patent US20150119601A1, “MONOFUNCTIONAL MCR + 3-HP DEHYDROGENASE” (OPX Biotechnologies, Inc., priority 2013, published 2015).

The structures appear in SMILES notation. Where two headings read alike, the source gives them in different places.

For one data set, the system named is E. coli strains. The experiment in a line: Growth inhibition of E. coli strains by 3-HP. Format: cell-based. Conditions: E. coli strains grown in the presence of 3-HP.
In another data set the test system is H. elongata ACCase. As to the kind of experiment: Salt effect on H. elongata ACCase compared to E. coli ACCase. Format: biochemical, Halomonas elongata. Conditions: FIG. 4. The method, then:
Concentrations of products were measured using the Nanodrop spectophotometer.

The target in the next data set is E. coli ACCase (Escherichia coli, UniProt P0A9Q5+P0ABD5+P0ABD8+P24182). The note with it: for inhibition of E. coli ACCase by the salts: FIG. 4; for decrease of ACCase enzyme activity: relative to control (FIG. 4). The method, then: Levels of greater than 0.66M (60 g/L) are expected to be present for commercially viable commercial production of 3-HP.
Each gene was amplified by PCRs with Pfu Ultra II HS using the manufacturer's instructions, and the PCR products were purified using the Zymo PCR Cleanup kit. Concentrations of products were measured using the Nanodrop spectophotometer. The Gibson Assembly kit (NEB) was used to construct plasmids expressing the ACCase subunit genes as directed by the manufacturer. The effect of NH4-3-HP and NH4Cl on H. elongata ACCase was tested and compared to the E. coli ACCase.

[1] abbreviates: salts of 3-HP levels near 0.66M.

Sequence of E. coli ACCase (P0ABD5 whole entry): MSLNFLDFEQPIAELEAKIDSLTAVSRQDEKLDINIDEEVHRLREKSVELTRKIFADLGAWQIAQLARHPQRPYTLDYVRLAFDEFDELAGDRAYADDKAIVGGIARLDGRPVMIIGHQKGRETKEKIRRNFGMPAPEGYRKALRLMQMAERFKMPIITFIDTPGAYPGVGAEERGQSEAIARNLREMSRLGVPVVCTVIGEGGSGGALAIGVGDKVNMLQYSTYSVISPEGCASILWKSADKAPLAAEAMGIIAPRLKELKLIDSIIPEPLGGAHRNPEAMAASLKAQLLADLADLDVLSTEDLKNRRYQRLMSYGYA
Sequence of E. coli ACCase (P0A9Q5 whole entry): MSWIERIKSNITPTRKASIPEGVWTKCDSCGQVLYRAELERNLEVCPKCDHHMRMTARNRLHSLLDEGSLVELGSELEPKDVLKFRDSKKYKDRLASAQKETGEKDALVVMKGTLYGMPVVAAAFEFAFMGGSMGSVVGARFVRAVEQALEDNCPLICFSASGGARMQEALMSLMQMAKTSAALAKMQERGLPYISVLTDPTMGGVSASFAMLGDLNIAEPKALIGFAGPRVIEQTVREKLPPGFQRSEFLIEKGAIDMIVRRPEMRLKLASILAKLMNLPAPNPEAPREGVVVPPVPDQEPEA

`O=C(O)CCO` [3-HP, 3-hydroxypropionic acid]: the “3-HP level at which growth inhibition is demonstrated” value with E. coli strains is listed as not below 20 g/L.
As to `Cl.N` [NH4Cl], the “effect of the salts on ACCase from the halophile” value in the data set on H. elongata ACCase is recorded as “less affected”. In addition, the “inhibition of E. coli ACCase by the salts” value on E. coli ACCase is on record as “significantly inhibited”. Further, the “decrease of ACCase enzyme activity” value on E. coli ACCase (salt levels near 0.44M) is listed as “approximately 80%”.
In the case of `O=C([O-])CCO.[Na+]` [Na-3-HP], at E. coli ACCase (setting [1]), the “decrease of ACCase enzyme activity” value is “approximately 80%”.
Regarding `N.O=C(O)CCO` [NH4-3-HP], the “effect of the salts on ACCase from the halophile” value with H. elongata ACCase was “less affected”. The “inhibition of E. coli ACCase by the salts” value on E. coli ACCase is listed as “significantly inhibited”. In addition, at E. coli ACCase (setting [1]), the “decrease of ACCase enzyme activity” value is given as “approximately 80%”.
Take `[Cl-].[Na+]` [NaCl]: at E. coli ACCase (salt levels near 0.44M), the “decrease of ACCase enzyme activity” value is recorded as “approximately 80%”.
